Calls of active or inactive are those of the source. The rule behind the calls is not given here.
Tests used:
ZR-75-30 [1] = test: Induction of oxidative stress in tamoxifen-induced senescent human ZR-75-30 cells assessed as increase in mitochondrial superoxide production at 1 to 5 uM incubated for 24 hrs by MitoSOX red superoxide indicator based fluorescence analysis; format: functional, cell-based; settings: dose 1-5 µM
MCF-10F [2] = test: Induction of mitochondrial dysfunction in tamoxifen-induced senescent human MCF-10F cells assessed as decrease in maximal respiration at 5 uM incubated for 6 hrs by real-time analysis; format: functional, cell-based
MCF-10F [3] = test: Induction of mitochondrial dysfunction in human MCF-10F cells assessed as decrease in coupling efficiency at 5 uM incubated for 6 hrs by real time analysis; format: functional, cell-based
HCC1500 [4] = test: Anticancer activity against ER-positive human HCC1500 cells assessed as effect on metabolic activity upto 10 uM incubated for 24 hrs by MTT assay; format: functional, cell-based
CAMA-1 [5] = test: Induction of apoptosis in human CAMA-1 cells assessed as phosphatidylserine externalization at 1 to 5 uM incubated for 24 hrs by Annexin V-FITC staining based flow cytometric analysis; format: functional, cell-based; settings: dose 1-5 µM
HCC1428 [6] = test: Induction of mitochondrial dysfunction in human HCC1428 cells assessed as decrease in coupling efficiency at 5 uM incubated for 6 hrs by real time analysis; format: functional, cell-based
HCC1428 [7] = test: Upregulation of BECN1 level in tamoxifen-induced senescent human HCC1428 cells at 1 to 5 uM by immunostaining based imaging cytometric analysis; format: functional, cell-based; settings: dose 1-5 µM
HCC1428 [8] = test: Induction of oxidative stress in tamoxifen-induced senescent human HCC1428 cells assessed as increase in mitochondrial SOD2 level at 1 to 5 uM incubated for 24 hrs by MitoSOX red superoxide indicator based fluorescence analysis; format: functional, cell-based; settings: dose 1-5 µM
Mitochondrial membrane [9] = test: Induction of mitochondrial membrane potential depolarization in tamoxifen-induced senescent human ZR-75-30 cells assessed as increase in depolarized dead cell level at 1 to 5 uM incubated for 24 hrs by 7-AAD staining based flow cytometric analysis; format: cell membranes; settings: dose 1-5 µM
HCC1428 [10] = test: Induction of autophagy in tamoxifen-induced senescent human HCC1428 cells assessed as increase in VPS34 level at 1 to 5 uM by immunostaining based imaging cytometric analysis; format: functional, cell-based; settings: dose 1-5 µM
HCC1428 [11] = test: Induction of […] in human tamoxifen-induced senescent human HCC1428 cells at 1 to 5 uM incubated for 24 hrs by Annexin V-FITC staining based flow cytometric analysis; format: functional, cell-based; settings: dose 1-5 µM
HCC1428 [12] = test: Anticancer activity against ER-positive human HCC1428 cells assessed as effect on metabolic activity upto 10 uM incubated for 24 hrs by MTT assay; format: functional, cell-based
[13] = molecular target: T1, Receptor-interacting serine/threonine-protein kinase 1 (Homo sapiens) (UniProt Q13546); test: Induction of RIP1 phosphorylation in human HCC1428 cells at 1 to 5 uM incubated for 24 hrs by Western blot analysis; format: cell-based; settings: dose 1-5 µM
T1 sequence (whole entry): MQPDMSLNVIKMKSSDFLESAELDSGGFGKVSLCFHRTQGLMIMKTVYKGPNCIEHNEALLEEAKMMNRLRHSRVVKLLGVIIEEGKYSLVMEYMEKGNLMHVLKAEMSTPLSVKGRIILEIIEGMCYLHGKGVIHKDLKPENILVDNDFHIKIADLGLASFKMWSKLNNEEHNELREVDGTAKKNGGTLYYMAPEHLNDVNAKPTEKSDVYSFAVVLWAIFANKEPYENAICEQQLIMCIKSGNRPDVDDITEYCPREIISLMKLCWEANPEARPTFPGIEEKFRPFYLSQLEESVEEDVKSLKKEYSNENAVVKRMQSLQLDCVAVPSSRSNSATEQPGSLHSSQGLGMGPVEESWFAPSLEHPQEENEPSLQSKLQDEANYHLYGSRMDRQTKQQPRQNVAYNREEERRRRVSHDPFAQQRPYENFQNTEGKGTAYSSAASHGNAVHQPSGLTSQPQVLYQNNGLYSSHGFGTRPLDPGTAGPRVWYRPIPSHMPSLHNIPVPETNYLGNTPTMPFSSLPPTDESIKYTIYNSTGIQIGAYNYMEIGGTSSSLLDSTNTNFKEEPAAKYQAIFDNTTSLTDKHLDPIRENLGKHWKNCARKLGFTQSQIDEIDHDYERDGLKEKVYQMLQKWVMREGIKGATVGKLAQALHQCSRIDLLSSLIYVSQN

ZR-75-30 [14] = test: Induction of senescence in human ZR-75-30 cells assessed as […] in beta-galactosidase activity at 5 uM incubated for 24 hrs by immunostaining based imaging cytometric analysis; format: functional, cell-based
HCC1428 [15] = test: Induction of mitochondrial dysfunction in tamoxifen-induced senescent human HCC1428 cells assessed as decrease in maximal respiration at 5 uM incubated for 6 hrs by real-time analysis; format: functional, cell-based
BJ = test: Cytotoxicity against human BJ cells assessed as effect on metabolic activity at 1 to 10 uM incubated for 24 hrs by MTT assay; format: toxicity, cell-based; settings: dose 1-10 µM
CAMA-1 [16] = test: Induction of apoptosis in tamoxifen-induced senescent human CAMA-1 cells assessed as decrease in HSP90 level incubated for 24 hrs by immunostaining based imaging cytometric analysis; format: functional, cell-based
MCF-10F [17] = test: Induction of mitochondrial dysfunction in human MCF-10F cells assessed as decrease in maximal respiration at 5 uM incubated for 6 hrs by real time analysis; format: functional, cell-based
HCC1428 [18] = test: Induction of apoptosis in tamoxifen-induced senescent human HCC1428 cells assessed as decrease in AKT level at 1 to 5 uM incubated for 24 hrs by Western blotting analysis; format: functional, cell-based; settings: dose 1-5 µM
HCC1428 [19] = test: Induction of apoptosis in human HCC1428 cells assessed as phosphatidylserine externalization at 1 to 5 uM incubated for 24 hrs by Annexin V-FITC staining based flow cytometric analysis; format: functional, cell-based; settings: dose 1-5 µM
CAMA-1 [20] = test: Induction of oxidative stress in tamoxifen-induced senescent human CAMA-1 cells assessed as increase in mitochondrial superoxide production at 1 to 5 uM incubated for 24 hrs by MitoSOX red superoxide indicator based fluorescence analysis; format: functional, cell-based; settings: dose 1-5 µM
MCF-10F [21] = test: Effect on Bcl-rambo protein level in tamoxifen-induced senescent human MCF-10F cells at 1 to 5 uM incubated for 24 hrs by Western blot analysis; format: functional, cell-based; settings: dose 1-5 µM
[22] = Cytotoxicity against human MCF-10F cells assessed as effect on metabolic activity at 1 to 10 uM incubated for 24 hrs by MTT assay; format: toxicity, cell-based; settings: dose 1-10 µM
MCF-10F [23] = test: Induction of mitochondrial dysfunction in human MCF-10F cells assessed as decrease in spare respiratory capacity at 5 uM incubated for 6 hrs by real time analysis; format: functional, cell-based
ZR-75-30 [24] = test: Induction of apoptosis in tamoxifen-induced senescent human ZR-75-30 cells assessed as increase in caspase 9 level incubated for 24 hrs by immunostaining based imaging cytometric analysis; format: functional, cell-based
HCC1500 [25] = test: Induction of oxidative stress in tamoxifen-induced senescent human HCC1500 cells assessed as increase in mitochondrial superoxide production at 1 to 5 uM incubated for 24 hrs by MitoSOX red superoxide indicator based fluorescence analysis; format: functional, cell-based; settings: dose 1-5 µM
HCC1428 [26] = test: Induction of ubiquitin-dependent mitophagy in tamoxifen-induced senescent human HCC1428 cells assessed as increase in PINK1 level at 5 uM by immunostaining based imaging cytometric analysis; format: functional, cell-based
Mitochondrial membrane [27] = test: Induction of mitochondrial membrane potential depolarization in human ZR-75-30 cells assessed as increase in fraction of depolarized dead cells at 5 uM incubated for 24 hrs by 7-AAD staining based flow cytometric analysis; format: cell membranes

## CC(=O)Oc1ccc2c(=O)c(OCCCC[P+](c3ccccc3)(c3ccccc3)c3ccccc3)c(-c3ccc4c(c3)OC(c3ccccc3)(c3ccccc3)O4)oc2c1.[I-]
ZR-75-30 [1]
  Activity: Active
MCF-10F [2]
  Activity: inactive
MCF-10F [3]
  Activity: inactive
HCC1500 [4]
  Activity: Active
CAMA-1 [5]
  Activity: Active
HCC1428 [6]
  Activity: Active
HCC1428 [7]
  Activity: inactive
HCC1428 [8]
  Activity: Active
Mitochondrial membrane [9]
  Activity: Active
HCC1428 [10]
  Activity: Active
HCC1428 [11]
  Activity: Active
HCC1428 [12]
  Activity: Active
[13]
  Activity: inactive
ZR-75-30 [14]
  Activity: Active
HCC1428 [15]
  Activity: Active
BJ
  Activity: Non-toxic
CAMA-1 [16]
  Activity: Active
MCF-10F [17]
  Activity: inactive
HCC1428 [18]
  Activity: Active
HCC1428 [19]
  Activity: Active
CAMA-1 [20]
  Activity: Active
MCF-10F [21]
  Activity: inactive
[22]
  Activity: Non-toxic
MCF-10F [23]
  Activity: inactive
ZR-75-30 [24]
  Activity: Active
HCC1500 [25]
  Activity: Active
HCC1428 [26]
  Activity: Active
Mitochondrial membrane [27]
  Activity: Active

— ChEMBL document CHEMBL6120962, “New Mitochondria-Targeted Fisetin Derivative Compromises Mitophagy and Limits Survival of Drug-Induced Senescent Breast Cancer Cells” (J Med Chem, 2024)
